Data: ChEMBL document CHEMBL4229381, “New cytokinin derivatives possess UVA and UVB photoprotective effect on human skin cells and prevent oxidative stress” (Eur J Med Chem, 2018)
Active and inactive are the calls of the source. No cut-off for these calls is given here.

How the values were obtained:
Triticum aestivum = experiment: Anti-senescent activity in leaf of Triticum aestivum cv. Hereward seedlings by measuring chlorophyll retention at 10^-4 mol/L after 4 days relative to control; assay type: functional
Amaranthus caudatus [1] = experiment: Growth promoting activity in Amaranthus caudatus var. atropurpurea seeds by measuring betacyanin at 10^-4 mol/L after 48 hrs relative to control; assay type: functional
Nicotiana tabacum = experiment: Growth promoting activity in tobacco callus assessed as callus weight at 10^-5 mol/L after 4 weeks relative to control; assay type: functional
Amaranthus caudatus [2] = experiment: Growth promoting activity in Amaranthus caudatus var. atropurpurea seeds by measuring betacyanin at 10^-5 mol/L after 48 hrs relative to control; assay type: functional
[3] = Phototoxicity in human NHDF cells assessed as cell viability at 7.8 uM preincubated for 60 mins followed by 5 J/cm2 UVA irradiation and measured after 24 hrs by neutral red uptake assay relative to control; assay type: cell-based; settings: read-out: Activity
BJ = experiment: Cytotoxicity in human BJ cells assessed as reduction in cell viability at 50 uM after 24 hrs by resazurin dye-based fluorescence assay relative to control
[4] = Phototoxicity in human NHDF cells assessed as cell viability at 3.9 uM preincubated for 60 mins followed by 5 J/cm2 UVA irradiation and measured after 24 hrs by neutral red uptake assay relative to control; assay type: cell-based; settings: read-out: Activity
[5] = Phototoxicity in human HaCaT cells assessed as cell viability at 7.8 uM preincubated for 60 mins followed by 7.5 J/cm2 UVA irradiation and measured after 24 hrs by neutral red uptake assay relative to control; assay type: cell-based; settings: read-out: Activity
[6] = Phototoxicity in human NHDF cells assessed as cell viability at 31.3 uM preincubated for 60 mins followed by 5 J/cm2 UVA irradiation and measured after 24 hrs by neutral red uptake assay relative to control; assay type: cell-based; settings: read-out: Activity
[7] = Cytotoxicity in human NHDF cells assessed as cell viability at 62.5 uM after 24 hrs by neutral red uptake assay relative to control; assay type: cell-based; settings: read-out: Activity
[8] = Phototoxicity in human HaCaT cells assessed as cell viability at 15.6 uM preincubated for 60 mins followed by 7.5 J/cm2 UVA irradiation and measured after 24 hrs by neutral red uptake assay relative to control; assay type: cell-based; settings: read-out: Activity
[9] = Cytotoxicity in human NHDF cells assessed as cell viability at 125 uM after 24 hrs by neutral red uptake assay relative to control; assay type: cell-based; settings: read-out: Activity
HaCaT [10] = experiment: Cytoprotection against phototoxicity in human HaCaT cells assessed as increase in cell viability at 3.9 uM preincubated for 60 mins followed by 10 J/cm2 UVA irradiation and measured after 24 hrs by neutral red uptake assay; assay type: functional, cell-based
[11] = Cytotoxicity in human HaCaT cells assessed as cell viability at 3.9 uM after 24 hrs by neutral red uptake assay relative to control; assay type: cell-based; settings: read-out: Activity
[12] = Phototoxicity in human HaCaT cells assessed as cell viability at 31.3 uM preincubated for 60 mins followed by 7.5 J/cm2 UVA irradiation and measured after 24 hrs by neutral red uptake assay relative to control; assay type: cell-based; settings: read-out: Activity
[13] = Phototoxicity in human HaCaT cells assessed as cell viability at 3.9 uM preincubated for 60 mins followed by 7.5 J/cm2 UVA irradiation and measured after 24 hrs by neutral red uptake assay relative to control; assay type: cell-based; settings: read-out: Activity
[14] = Phototoxicity in human HaCaT cells assessed as cell viability at 125 uM preincubated for 60 mins followed by 7.5 J/cm2 UVA irradiation and measured after 24 hrs by neutral red uptake assay relative to control; assay type: cell-based; settings: read-out: Activity
[15] = Antioxidant activity assessed as trolox equivalent of AAPH-induced radical scavenging activity at 1 uM pretreated for 15 mins followed by […] challenge measured every 3 mins over 90 mins by ORAC-FL assay; assay type: functional
[16] = Cytotoxicity in human HaCaT cells assessed as cell viability at 125 uM after 24 hrs by neutral red uptake assay relative to control; assay type: cell-based; settings: read-out: Activity
[17] = Cytotoxicity in human NHDF cells assessed as cell viability at 7.8 uM after 24 hrs by neutral red uptake assay relative to control; assay type: cell-based; settings: read-out: Activity
[18] = Cytotoxicity in human HaCaT cells assessed as cell viability at 7.8 uM after 24 hrs by neutral red uptake assay relative to control; assay type: cell-based; settings: read-out: Activity
[19] = Cytotoxicity in human NHDF cells assessed as cell viability at 31.3 uM after 24 hrs by neutral red uptake assay relative to control; assay type: cell-based; settings: read-out: Activity
[20] = Phototoxicity in human NHDF cells assessed as cell viability at 125 uM preincubated for 60 mins followed by 5 J/cm2 UVA irradiation and measured after 24 hrs by neutral red uptake assay relative to control; assay type: cell-based; settings: read-out: Activity
[21] = Phototoxicity in human NHDF cells assessed as cell viability at 62.5 uM preincubated for 60 mins followed by 5 J/cm2 UVA irradiation and measured after 24 hrs by neutral red uptake assay relative to control; assay type: cell-based; settings: read-out: Activity
[22] = Cytotoxicity in human HaCaT cells assessed as cell viability at 31.3 uM after 24 hrs by neutral red uptake assay relative to control; assay type: cell-based; settings: read-out: Activity
HaCaT [23] = experiment: Cytotoxicity in human HaCaT cells assessed as reduction in cell viability at 50 uM after 24 hrs by resazurin dye-based fluorescence assay relative to control
[24] = Cytotoxicity in human HaCaT cells assessed as cell viability at 62.5 uM after 24 hrs by neutral red uptake assay relative to control; assay type: cell-based; settings: read-out: Activity
[25] = Cytotoxicity in human NHDF cells assessed as cell viability at 15.6 uM after 24 hrs by neutral red uptake assay relative to control; assay type: cell-based; settings: read-out: Activity
[26] = Cytotoxicity in human HaCaT cells assessed as cell viability at 15.6 uM after 24 hrs by neutral red uptake assay relative to control; assay type: cell-based; settings: read-out: Activity
[27] = Cytotoxicity in human NHDF cells assessed as cell viability at 3.9 uM after 24 hrs by neutral red uptake assay relative to control; assay type: cell-based; settings: read-out: Activity
[28] = Phototoxicity in human HaCaT cells assessed as cell viability at 62.5 uM preincubated for 60 mins followed by 7.5 J/cm2 UVA irradiation and measured after 24 hrs by neutral red uptake assay relative to control; assay type: cell-based; settings: read-out: Activity
[29] = Phototoxicity in human NHDF cells assessed as cell viability at 15.6 uM preincubated for 60 mins followed by 5 J/cm2 UVA irradiation and measured after 24 hrs by neutral red uptake assay relative to control; assay type: cell-based; settings: read-out: Activity
NHDF [30] = experiment: Cytoprotection against phototoxicity in human NHDF cells assessed as increase in cell viability at 3.9 to 31.3 uM preincubated for 60 mins followed by 7.5 J/cm2 UVA irradiation and measured after 24 hrs by neutral red uptake assay; assay type: functional, cell-based
NHDF [31] = experiment: Cytoprotection against phototoxicity in human NHDF cells assessed as increase in cell viability at 3.9 to 31.3 uM preincubated for 60 mins followed by 150 mJ/cm2 UVB irradiation and measured after 24 hrs by neutral red uptake assay; assay type: functional, cell-based

c1csc(CCNc2ncnc3[nH]cnc23)c1
Activity (Triticum aestivum): inactive
Activity (Amaranthus caudatus [1]): 80%
Activity (Nicotiana tabacum): 77%

Cc1ccsc1CNc1ncnc2c1ncn2C1CCCO1 (stereo not given)
Activity (Triticum aestivum): 110%
Activity (Nicotiana tabacum): 99%

c1csc(CNc2[nH]cnc3ncnc2-3)c1
Activity (Triticum aestivum): 60%
Activity (Nicotiana tabacum): 102%
Activity (Amaranthus caudatus [2]): 95%

OCc1ccc(CNc2ncnc3c2ncn3C2CCCO2)o1 (stereo not given)
viability at 24 h, 7.8 µM [3]: 107%
Activity (BJ): < 10%
viability at 24 h, 3.9 µM [4]: 101%
viability at 24 h, 7.8 µM [5]: 111%
viability at 24 h, 31.3 µM [6]: 107%
viability at 24 h, 62.5 µM [7]: 107%
viability at 24 h, 15.6 µM [8]: 108%
Activity (Triticum aestivum): 75%
viability at 24 h, 125 µM [9]: 110%
Activity (HaCaT [10]): Active
viability at 24 h, 3.9 µM [11]: 100%
viability at 24 h, 31.3 µM [12]: 118%
viability at 24 h, 3.9 µM [13]: 104%
viability at 24 h, 125 µM [14]: 125%
Activity (Nicotiana tabacum): 103%
Activity [15]: 0.77 equiv
viability at 24 h, 125 µM [16]: 110%
viability at 24 h, 7.8 µM [17]: 105%
viability at 24 h, 7.8 µM [18]: 100%
viability at 24 h, 31.3 µM [19]: 108%
viability at 24 h, 125 µM [20]: 112%
viability at 24 h, 62.5 µM [21]: 111%
viability at 24 h, 31.3 µM [22]: 108%
Activity (HaCaT [23]): < 10%
viability at 24 h, 62.5 µM [24]: 106%
viability at 24 h, 15.6 µM [25]: 104%
viability at 24 h, 15.6 µM [26]: 102%
viability at 24 h, 3.9 µM [27]: 103%
viability at 24 h, 62.5 µM [28]: 121%
viability at 24 h, 15.6 µM [29]: 102%

c1ccc(CNc2ncnc3[nH]cnc23)cc1 [6-BENZYLAMINOPURINE]
Activity (Nicotiana tabacum): 20%

c1coc(CNc2ncnc3[nH]cnc23)c1 [KINETIN]
Activity (Triticum aestivum): 98%
Activity (NHDF [30]): Active
Activity (Nicotiana tabacum): 101%
Activity [15]: 0.71 equiv
Activity (NHDF [31]): Active
Activity (Amaranthus caudatus [2]): 68%
